Key:
PPARα = molecular target: T1, PPARα (Homo sapiens, UniProt Q07869); experiment: PPARα reporter (CTF)/functional assay in CV1 cells; type: cell-based; settings: examined up to 10 μM; efficacy <20% considered negative
T1 construct: expressed in transfected cells; host or cells: CV1 (African green monkey kidney)
T1 sequence (Q07869 239-466 limits assumed): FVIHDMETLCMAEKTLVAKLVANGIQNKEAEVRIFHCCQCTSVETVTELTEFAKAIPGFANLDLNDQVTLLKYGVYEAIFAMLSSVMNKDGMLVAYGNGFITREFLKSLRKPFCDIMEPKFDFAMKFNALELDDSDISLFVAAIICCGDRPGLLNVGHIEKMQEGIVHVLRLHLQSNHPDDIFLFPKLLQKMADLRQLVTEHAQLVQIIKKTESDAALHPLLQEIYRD
From the text: (§1) Because GPR-40 is known to be activated by ligands to PPARγ, exemplified compounds are examined in PPARα, PPARδ, and PPARγ reporter assays to determine the selectivity of an exemplified compound. CV1 cells, which are derived from the renal tissue of an African green monkey, are transfected with various receptor and reporter plasmids using Fugene. For the PPARα and PPARδ assays, a reporter plasmid containing five tandem copies of the yeast transcription protein Gal4 response element, cloned upstream of a firefly luciferase gene driven by the major late promoter of adenovirus, is transfected together with a Simian Virus 40 (SV40) driven plasmid constitutively expressing a hybrid protein containing the Gal4 DNA binding domain (DBD), and either the PPARα or PPARδ ligand binding domain. For the PPARγ assay, plasmids encoding PPARγ and RXRα, both driven by a cytomegalovirus (CMV) promoter are transfected together with a plasmid containing luciferase reporter cDNA driven by the TK promoter and a receptor response element (2×PPRE). […] After 24 hours incubation with compound, cells are lysed and luciferase activity is determined as a measure of receptor activation by luminescence. […] The maximum percent stimulation is determined versus maximum stimulation obtained with 10 μM of an appropriate PPAR agonist reference compound. […]

PPARδ = molecular target: T2, PPARδ (Homo sapiens, UniProt Q03181); experiment: PPARδ reporter (CTF)/functional assay in CV1 cells; type: cell-based; settings: examined up to 10 μM; efficacy <20% considered negative
T2 construct: expressed in transfected cells; host or cells: CV1 (African green monkey kidney)
T2 sequence (Q03181 211-439 limits assumed): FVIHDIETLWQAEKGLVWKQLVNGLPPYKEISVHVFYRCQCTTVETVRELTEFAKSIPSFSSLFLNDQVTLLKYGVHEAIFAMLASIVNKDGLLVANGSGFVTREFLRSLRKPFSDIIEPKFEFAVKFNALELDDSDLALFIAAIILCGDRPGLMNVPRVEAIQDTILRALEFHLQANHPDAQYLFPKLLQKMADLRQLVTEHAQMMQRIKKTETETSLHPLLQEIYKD
From the text: as §1

human GPR-40 (hGPR-40) = molecular target: T3, human GPR-40 (hGPR-40) (Homo sapiens, UniProt O14842); experiment: Radioligand competition binding, in vitro binding affinity to GPR-40; settings: 5 nM [3H] TAK-875; membranes of HEK293 cells overexpressing hGPR-40; Cheng-Prusoff
T3 construct: expressed in transfected cells; host or cells: HEK293 (membranes)
From the text: Competition curves are plotted as the percent specific inhibition versus concentration of compound and analyzed using a four parameter nonlinear regression fit with variable slope. […] See Cheng, Y. and Prusoff, W. H. (1973) “Relationship between the inhibition constant (Ki) and the concentration of inhibitor which causes 50 per cent inhibition (IC50) of an enzymatic reaction,” Biochem Pharmacol 22(23):3099-3108. […] (Mean±SEM; SEM=standard error of the mean.).

hGPR-40 (hFFAR1) = molecular target: T4, hGPR-40 (hFFAR1) (Homo sapiens, UniProt O14842); experiment: Human beta-arrestin agonist assay with 1% FBS; type: cell-based
T4 construct: host or cells: HEK293
From the text: (§2) Human embryonic kidney (hEK293)-hFFAR1 cells are purchased from DiscoveRx™. Human osteosarcoma (U2OS) cells expressing mFFAR1 are developed by DiscoveRX™. These cells co-express the Prolink™ (PK)-tagged GPR-40 and the Enzyme Acceptor™ (EA)-tagged beta-arrestin fusion proteins. If activation of the GPR-40 stimulates beta-arrestin recruitment, it would force complementation of the beta galactosidase (B-gal) enzyme fragments, forming a B-gal enzyme that generates a chemiluminescent signal using the DiscoveRx PathHunter™ detection kit. Cells are incubated overnight at 5,000 cells/well in 384 well plates in culture media containing 1% FBS (fetal bovine serum). Serial diluted compound in DMSO (2× dilutions to generate 20 concentrations) are step down diluted in culture media containing 1% FBS (fetal bovine serum) and added to cells with a final top concentration starting of 100 μM. After addition of compound, cells are incubated for 90 min at 37° C. in 5% CO2 incubator, and DiscoveRX™ kit detection reagents are added. Measurement of the chemiluminescent signal is ascertained with the Envision™ reader, after a 1-hour incubation at room temperature. Data are fit to a 4 parameter-fit logistics to determine EC50 values, % activity is measured versus maximum response to an internal standard GPR-40 agonist at 1 μM.

mGPR-40 (mFFAR1) = molecular target: T5, mGPR-40 (mFFAR1) (Mus musculus, UniProt Q76JU9); experiment: Mouse beta-arrestin agonist assay with 1% FBS; type: cell-based
T5 construct: host or cells: U2OS
From the text: as §2

[1] = versus internal standard GPR-40 agonist at 1 μM

T4 sequence (O14842 whole entry): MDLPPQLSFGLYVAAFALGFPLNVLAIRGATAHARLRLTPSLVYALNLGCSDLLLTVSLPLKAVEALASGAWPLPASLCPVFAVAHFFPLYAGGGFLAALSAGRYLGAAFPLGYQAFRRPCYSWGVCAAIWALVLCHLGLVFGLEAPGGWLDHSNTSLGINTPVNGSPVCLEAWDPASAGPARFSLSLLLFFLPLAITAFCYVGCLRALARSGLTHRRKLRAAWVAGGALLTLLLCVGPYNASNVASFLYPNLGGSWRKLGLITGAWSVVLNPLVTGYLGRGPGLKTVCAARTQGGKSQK
T4 sequence (P32121 whole entry partner): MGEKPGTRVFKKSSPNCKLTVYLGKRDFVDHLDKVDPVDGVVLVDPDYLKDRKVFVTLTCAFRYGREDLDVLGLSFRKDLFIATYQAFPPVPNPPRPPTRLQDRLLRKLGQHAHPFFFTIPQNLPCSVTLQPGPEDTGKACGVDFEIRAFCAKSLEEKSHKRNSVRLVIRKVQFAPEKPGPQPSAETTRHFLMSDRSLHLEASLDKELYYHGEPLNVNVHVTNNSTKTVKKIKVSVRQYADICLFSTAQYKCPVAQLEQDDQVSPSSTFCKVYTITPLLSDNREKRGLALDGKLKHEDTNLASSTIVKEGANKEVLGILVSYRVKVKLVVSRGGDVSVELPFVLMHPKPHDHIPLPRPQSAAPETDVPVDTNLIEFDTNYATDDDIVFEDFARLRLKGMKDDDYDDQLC
T5 sequence (Q76JU9 whole entry): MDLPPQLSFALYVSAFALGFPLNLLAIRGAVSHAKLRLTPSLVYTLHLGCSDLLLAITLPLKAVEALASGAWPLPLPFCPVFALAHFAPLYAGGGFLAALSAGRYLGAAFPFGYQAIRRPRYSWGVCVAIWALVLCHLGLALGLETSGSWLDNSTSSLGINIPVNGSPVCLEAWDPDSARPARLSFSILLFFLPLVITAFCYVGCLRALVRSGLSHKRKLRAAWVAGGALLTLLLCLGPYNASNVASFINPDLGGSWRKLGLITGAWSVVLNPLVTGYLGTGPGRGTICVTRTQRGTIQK
T5 sequence (P32121 whole entry partner): as the sequence (P32121 whole entry partner) above
T3 sequence (O14842 whole entry): as the sequence (O14842 whole entry) above

Structure (SMILES): CC#C[C@@H](CC(=O)O)c1ccc(OCc2ccc3nc(-c4c(C)cccc4C)nn3c2)cc1 [Example 1, (3S)-3-[4-[[2-(2,6-Dimethylphenyl)-[1,2,4]triazolo[1,5-a]pyridin-6-yl]methoxy]phenyl]hex-4-ynoic acid]
- functional activation of PPARα (PPARα): No functional activation
- functional activation of PPARδ (PPARδ): No functional activation
- Ki (human GPR-40 (hGPR-40)): 0.0149 µM
- EC50 (hGPR-40 (hFFAR1); hEK293-hFFAR1 cells, 1% FBS, 90 min, read-out: hGPR-40 b-arrestin EC50): 0.0448 µM
- hGPR-40 b-arrestin % stimulation max (FA) (hGPR-40 (hFFAR1); [1]): 128%
- EC50 (mGPR-40 (mFFAR1); U2OS cells expressing mFFAR1, 1% FBS, 90 min, read-out: mGPR-40 b-arrestin EC50): 0.00363 µM
- mGPR-40 b-arrestin % stimulation max (FA) (mGPR-40 (mFFAR1); [1]): 153%

Reference: patent publication US9120793B2, “Triazolo-pyridine compound” (Eli Lilly and Company, priority 2013, dated 2015)
